Results published in US20090074680A1, “STATHERIN PEPTIDE AND USE IN MEDICINE” (QUEEN MARY & WESTFIELD COLLEGE, priority 2005, published 2009).
Where no end group is shown, it is not given here. [ ]: non-standard residue; d: D form. pS = N[C@@H](COP(=O)(O)O)C(=O)O

Tests used:
[1] = Scanning microradiography (SMR) of demineralisation of HAp blocks coated for 24 h with peptide; settings: for RDHAp of coated HAp compared to uncoated control: 24 h coating, StN21 0.75 to 3.76×10^−4 mol l^−1, lysozyme 0.11×10^−4 mol l^−1, pH 4.5; for rate of demineralisation of HAp (RDHAp): 0.1 mol l^−1 acetic acid pH 4.5, 3 weeks
Source text: HAp pellets are used in many studies instead of enamel blocks to prevent effect of enamel organic impurities and its natural surface on rate of demineralisation (Anderson et al., 2004). Statherin could not be isolated in a sufficiently pure form from saliva. Therefore N-terminal 21 residue fragment of statherin (StN21) was chemically synthesised using standard FastMoc synthesis (Fields et al., 1990). Also SXE motif, responsible for calcium binding in caseins, is present in this 21 amino-acid fragment of statherin. To exclude the possibility that StN21 act solely as a semi-permeable membrane, lysozyme was used as a negative control.
Hydroxyapatite (HAp) pellets of 20 wt % porosity (Plasma Biotal Ltd, UK) were sliced into 3×3 mm blocks with 2 mm thickness using Microslice 2 cutter (Malvern Instruments Ltd.). Entire surface of the block, except one side was coated with acid resistant nail varnish. Ten HAp blocks were put into a solution saturated with respect to HAp for 24 hours to equilibrate. After equilibration, four HAp blocks were exposed for 24 h to 0.5 ml of four different concentrations of StN21 peptide dissolved in modified buffer (100 mmol^−1 NaCl, 40 mmol^−1 KCl, 4.3 mmol^−1 Na2HPO4, and 1.4 mmol^−1 KH2PO4, pH 7.4). The concentrations of StN21 peptide were 0.75, 1.13, 1.88 and 3.76×10^−4 mol l^−1. As a negative control one HAp pellet was put into 0.5 ml of solution containing lysozyme at concentration of 0.11×10^−4 mol l^−1.
Scanning microradiography (SMR) is a technique for observing very subtle changes in mineral mass during re and demineralisation of enamel and HAp. It allows observation period of up to 1000 h without disruptions to the specimen. Also, conditions can be modified and the effect of applied modifications on the samples can be monitored. SMR (Anderson et al., 2004) is an X-ray photon counting technique where the intensity of 15 μm X ray beam is attenuated by passing through the specimen and the transmitted photons are counted by an X-ray detector.
HAp blocks were placed in the wells of SMR cells (FIG. 2). Each SMR cell contained one HAp block coated with protein and one as a control. As an additional control, in one SMR cell two uncoated HAp blocks were placed in one SMR cell. The reservoir of the SMR cell is approximately 1.2 ml and solution is circulating past the HAp blocks at 0.4 ml min^−1.
Demineralising solution was 0.1 mol l^−1 acetic acid, buffered to pH 4.5 with 1 mol l^−1 NaOH; 1 mmol l^−1 calcium and 0.6 mmol l^−1 phosphate ions.
SMR was used to monitor changes in mineral mass at 12 positions 10 μm apart, along 2 lines in each well. Scanning time was 30 s per position. Total period of observation was 3 weeks. The rate of mineral change at each position was calculated by linear least squares fitting.

[2] = SMR of demineralisation of HAp blocks after 3 min immersion(s) in STN21 solution; settings: STN21 1.88×10^−4 mol l^−1, pH 4.5
Protocol: STN21 was synthesised using Fmoc solid state synthesis. Hydroxyapatite (HAp) pellets were cut into 5×5×2 mm blocks and covered with acid-resistant varnish leaving one surface exposed and immersed in STN21 solution (1.88×10^−4 mol l^−1) for 3 min. The pellets were then located in scanning microradiography (SMR) cells. Demineralising solution (0.1 mol l^−1 acetic acid, pH 4.5) was circulated (0.4 ml min^−1) for 3 weeks.
Five samples were exposed to further twice daily 3 min. immersions in STN21 solution. Changes in mineral mass were measured using SMR for 28 days.

[3] = lysozyme bound to HAp surface; cited from earlier work

Row | Substance | effect on RDHAp at lowest concentration ([1]; 9.4×10^−6 molar, equivalent to 25 mg/litre) | RDHAp of coated HAp compared to uncoated control [1] | rate of demineralisation of HAp (RDHAp) ([1]; StN21 coating concentration 0.75×10^−4 mol l^−1, 24 h exposure) | rate of demineralisation of HAp (RDHAp) ([1]; StN21 coating concentration 1.13×10^−4 mol l^−1, 24 h exposure) | rate of demineralisation of HAp (RDHAp) ([1]; StN21 coating concentration 1.88×10^−4 mol l^−1, 24 h exposure) | rate of demineralisation of HAp (RDHAp) ([1]; StN21 coating concentration 3.76×10^−4 mol l^−1, 24 h exposure) | decrease in rate of mineral loss compared to a non-coated control ([2]; one 3 min period only) | decrease in demineralisation rate ([2]; repeated twice daily 3 min immersions) | influence on rate of demineralisation of HAp [3]
1 | DpSpSEEKFLRRIGRFGYGYGPY (D[pS][pS]EEKFLRRIGRFGYGYGPY; UniProt P02808 20-40, looked up, fragment) [StN21, N-terminal fragment of statherin which consists of 21 amino acids; pS = phosphorylated serine] | effective | significantly lower | 2.2 ×10^−5 g cm^−2 h^−1 | 1.9 ×10^−5 g cm^−2 h^−1 | 1.7 ×10^−5 g cm^−2 h^−1 | 1.8 ×10^−5 g cm^−2 h^−1 | 17% | 45% | 
2 | lysozyme [reference compound] |  | very similar results to uncoated (control) blocks |  |  |  |  |  |  | does not influence rate of demineralisation of HAp
